The source of these data is patent US5610171A, “Inhibition of metastasis in patients having cancer with pyridyloxazole-2-ones” (Merrell Pharmaceuticals Inc., priority 1995, dated 1997).

In test [1] the test system is SP1 mouse mammary adenocarcinoma cells. Conditions: cells normally do not metastasize; cited from earlier work.
The test system of the next test is collagen IV. Put plainly: Adhesion of B16F1 cells to collagen IV. It is filed as cell-based. The settings on record: 24 hours. As for the experimental part: (§1) Adhesion of B16F1 Cells to Basement Membrane Proteins
(§2) Adhesion proteins (2 μg/well) were coated onto Immulon I Removawells from Dynatech and incubated for 1 hour at 37° C. The wells were then blocked for 1 hour with 400 μl PBS, pH 7.2 containing 1% bovine serum albumin (BSA) at 37° C. Prior to addition of the cell suspension, the blocking solution was aspirated.
(§3) Sub-confluent cells were washed twice with HBSS and removed form flasks by incubation for 10 minutes at 37° C. with PBS (pH 7.2), 2 mM EDTA, and 1% BSA. The cells were washed twice with MEM containing 20 mM HEPES and 0.1% BSA and resuspended in the same medium to give a cell density of […].
(§4) Cells were added to wells in 50 μl (5×10^4 cells) and incubated at 37° C. The wells were aspirated and washed three times with 400 μl PBS (pH 7.2) containing 0.1% BSA. Wells were detached and counted in 5 ml Beckman Ready Protein. Blanks were not coated with protein but were blocked with BSA as described above.

For a further test, the system named is cytosolic PKC. In words: Inhibition of B16F1 cytosolic PKC activity. It is filed as biochemical, murine. The settings on record: B16F1 cytosol fraction. As for the experimental part:
(§5) Protein Kinase C Preparation
(§6) Cytostolic and membrane-associated PKC was prepared as described in Thomas, T. P., Gopalakrishna, R. and Anderson, W. B. Hormone- and tumor promoter-induced activation of membrane association of protein kinase C in intact cells, Methodsin Enzymology, 141: 399-411, 1987. Sub-confluent B16F1 cultures (4×10^7 cells total) were washed twice with phosphate buffered saline (PBS), pH 7.2 and then twice with buffer A (20 mM Tris, pH 7.5, 2 mM EDTA, 0.5 mM EGTA, […], 2 mM phenylmethylsulfonyl fluoride (PMSF), and 2 μg/ml leupeptin). Cells were scraped from the plates in buffer A, homogenized (40 strokes) and sedimented by centrifugation for 1 hour at 100,000 g. The cytosol was stored on ice while the particulate fraction was washed with buffer B (20 mM Tris, pH 7.2, 2 mM EDTA, 0.5 mM EGTA, and 2 mM (PMSF). The membranes were resuspended with buffer B and homogenized with 10 strokes. Nonidet P-40 (1% final concentration) was added and the mixture was incubated for 30 minutes at 4° C. in a rotating mixer. Nonsolubilized material was removed by centrifugation for 10 minutes at 1400 g. Cytostolic and membrane-bound PKC was partially purified by chromatography over 1 ml columns of DE-52 (Whatman) equilibrated with buffer B. The enzyme was applied to the column and washed with 2×3 ml buffer B. Elution of PKC was then effected by the addition of 2 ml buffer B containing 100 mM NaCl.
(§7) PKC was quantitated as described in Thomas et al., ibid. The assay contained 20 mM Tris (pH 7.5), 0.75 mM CaCl, 10 mM magnesium acetate, […] histone III-S, 0.25 μg/ml leupeptin, 100 μM [gamma-^32 p]-ATP (120 cpm/pmol), 0.96 μg/ml phosphatidylserine, and 0.0064 μg/ml 1,2-diolein in a total assay volume of 250 μl. Blanks contained no calcium or phospholipids. Incubation was for 5 minutes at 30° C. at which point the reaction was terminated by the addition of 1 ml 25% trichloroacetic acid (TCA). Samples were applied to Whatman GF/B filters, the tube rinsed twice with 5% TCA and the filter then washed 5 times with 5% TCA.
^a Subconfluent B16F1 cells were harvested and cytosol and membrane
fractions prepared as described in Materials and Methods. PKC activity wa
then measured in the presence of the drugs listed.

A further test deals with membrane-associated PKC. Put plainly: Inhibition of B16F1 membrane-associated PKC activity. It is filed as biochemical, murine. The settings on record: B16F1 membrane fraction. As for the experimental part: as §5, §6, §7
For the next test, the system named is B16F1 cells. In words: Experimental lung metastasis assay (B16F1 cells treated in culture, then injected intravenously into C57BL/6 mice). It is filed as in vivo, murine (C57BL/6 mice). The settings on record: Mus musculus, B16-F1, iv, read-out: B16 Metastasis IC50. As for the experimental part: Experimental Metastasis Assay
Sub-confluent B16F1 cells were harvested by washing with HBSS followed by trypsinization for 1 minute. The cells were sedimented by centrifugation (250 g, 5 minutes) and washed twice with HBSS. Viable cells were counted after dilution with trypan blue. A single-cell suspension of 10^5 cells in 0.2 ml HBSS was injected intravenously into 16-18 C57BL/6 mice via the tail vein. Three weeks later, the number of metastatic foci in the lung were counted.

In another test the test system is fibrinogen. In words: Adhesion of B16F1 cells to fibrinogen. It is filed as cell-based. The settings on record: 24 hours. As for the experimental part:
as §1, §2, §3, §4

Test [2] relates to B16F1 cells / human umbilical vein endothelial cells (HUVEC). Put plainly: Adhesion of B16F1 melanoma cells to endothelial cells (HUVEC). It is filed as cell-based, murine B16F1 cells; human HUVEC. As for the experimental part:
Adhesion of Tumor Cells to Endothelial Cells
Round 15 mm Thermanox tissue culture cover slips from Lux were placed in Corning 12-well, 22 mm diameter tissue culture clusters. HUVEC (2×10^6) were added to each well and grown to confluency. Sub-confluent B16F1 cells were labeled with 1 μCi/ml [^3 H]-thymidine (New England Nuclear, 78.5 Ci/mmol) for 24 hours at 37° C.
In preparation for the adhesion assay, the tissue culture wells containing either HUVEC or no cells were blocked with MEM containing 20 mM HEPES and 1% BSA for 1 hour at 37° C. B16F1 cells were removed from the flasks as described above for adhesion to basement membrane proteins and diluted to a density of 2×10^5 viable cells/ml in MEM (viability determined by trypan blue exclusion).
Blocking solution was aspirated from the wells and 1 ml of cells were added per well and incubated at 37° C. Nonadherent cells were washed from coverslips as described in Wright, P. S., Cross-Doersen, D., McCann, P. P. and Bitonti, A. J., Plasmodium falciparum: a rapid assay for cytoadherence of [^3 H]-hypoxanthine-labeled infected erythrocytes to human melanoma cells, Exp. Parasitol., 71: 346-349, 1990. Coverslips were retrieved from the well with forceps and dipped 10 times into a beaker of 100 ml MEM. Coverslips were placed into scintillation vials and counted in 10 ml Beckman Ready Protein.
B16F1 cells were treated with 4-propyl-5(4-pyridinyl)-
(3H)-oxazolone for 24 hours at 37° C. Cells were then
harvested and added to wells containing confluent HUVEC
cells and incubated for the time indicated at 37° C. Details
are given in Materials and Methods.

The test system of test [3] is Lewis lung carcinoma cells. The settings on record: cited from earlier work.
The test system of test [4] is B16 murine melanoma cells. Conditions: cells treated in vitro, intravenous injection into mice; cited from earlier work.
[5] abbreviates: cells exposed to drugs for 24 hours, nodules counted three weeks later.

Structures are written as SMILES. Like-named read-outs stand apart in the source and are kept apart here.

Regarding `CNc1ccc2oc(C[C@H]3O[C@@]4(CC[C@H]3C)O[C@H]([C@H](C)C(=O)c3ccc[nH]3)[C@H](C)C[C@H]4C)nc2c1C(=O)O` [Compound A23187], the “metastasis from the primary tumor” value in [1] is reported as “resulted in metastasis from the primary tumor”.

The IC50 is the concentration at which inhibition is half-maximal. With `CC1CNCCN1S(=O)(=O)c1cccc2cnccc12` (stereo not shown) [Compound H-7, reference compound], the “adhesion to collagen IV” value in the test with collagen IV is on record as “Neither H-7 nor staurosporine inhibited adherence”. Besides, the results for the IC50 in the test on cytosolic PKC, in the test on membrane-associated PKC and in the test on B16F1 cells were 180 µM, 71 µM and 12.5 µM, respectively. In addition, the adhesion to fibrinogen result in the test on fibrinogen is given as “Neither H-7 nor staurosporine inhibited adherence”. Further, in test [2], the “adherence to HUVEC” value is “Neither H-7 nor staurosporine inhibited adherence”.

Consider `CCCc1[nH]c(=O)oc1-c1ccnc2ccccc12` [Compound 4, 4propyl-5-(4-quinolinyl)-2(3H)-oxazolone], for which the IC50 with cytosolic PKC is 62 µM; in the test with membrane-associated PKC, 94 µM.

On to `Cc1[nH]c(=O)oc1-c1ccncc1` [Compound 2, 4methyl-5-(4-pyridinyl)-2(3H)-oxazolone], for which the IC50 in the test on cytosolic PKC turned out to be 500 µM; in the test with membrane-associated PKC it was 250 µM; in the test on B16F1 cells (setting [5]), 36 µM.

For the molecule `CCCCCCCCCCCCCC(=O)O[C@@H]1[C@@H](C)[C@@]2(O)[C@@H](C=C(CO)C[C@]3(O)C(=O)C(C)=C[C@@H]23)[C@@H]2C(C)(C)[C@]12OC(C)=O` [PMA, phorbol-12-myristate-13-acetate], in test [3], the “adhesion to endothelial cells” value is reported as “enhancement of adhesion to endothelial cells”. Besides, in test [4], the “number of metastatic foci in lungs” value was “increased numbers of metastatic foci in lungs”. Moreover, in test [1], the “metastasis from the primary tumor” value is reported as “resulted in metastasis from the primary tumor”.

On to `CN[C@@H]1C[C@H]2O[C@@](C)([C@@H]1OC)n1c3ccccc3c3c4c(c5c6ccccc6n2c5c31)C(=O)NC4` [Staurosporine, reference compound], for which, in the test with collagen IV, the “adhesion to collagen IV” value is on record as “Neither H-7 nor staurosporine inhibited adherence”. Moreover, the midpoint of inhibition in the test with cytosolic PKC, the IC50, lay at 0.019 µM. In the test with fibrinogen, the adhesion to fibrinogen result is “Neither H-7 nor staurosporine inhibited adherence”. Moreover, the “adherence to HUVEC” value in test [2] is “Neither H-7 nor staurosporine inhibited adherence”.

Regarding `CCc1[nH]c(=O)oc1-c1ccnc2ccccc12` [Compound 3, 4ethyl-5-(4-quinolinyl)-2(3H)-oxazolone], the values for the IC50 in the test on cytosolic PKC, in the test on membrane-associated PKC and in the test on B16F1 cells (setting [5]) were 47 µM, 15 µM and 68 µM, respectively.
